The subject of test [1] is Du145 cells. Put plainly: Calcein AM cytotoxicity assay, Du145. In kind it is cell-based. To be noted: Homo sapiens, DU-145; Du145, Calcein AM, 72 h; read-out: IC50. The text has this: (§1) Five serial 1:2 dilutions were made with anhydrous DMSO at 100× the final concentration used in the assay.
The subject of test [2] is Du145 cells. Put plainly: Cell Titer-Glo cytotoxicity assay, Du145. To be noted: Homo sapiens, DU-145; Du145, Cell Titer-Glo, 72 h; read-out: IC50. In kind it is cell-based.
Text: as §1

Test [3] has as its system HCT-116 cells. Put plainly: Calcein AM cytotoxicity assay, HCT-116. Type of test: cell-based. To be noted: Homo sapiens; HCT-116, Calcein AM, 72 h; read-out: IC50.
Text: as §1

In test [4] the test system is HCT-116 cells. Put plainly: Cell Titer-Glo cytotoxicity assay, HCT-116. In kind it is cell-based. To be noted: Homo sapiens; HCT-116, Cell Titer-Glo, 72 h; read-out: IC50.
Text: as §1
A general note: Cellular ATP, detected with luciferase, serves as a proxy for viable cell number.

Test [5] relates to Hep3B cells. Description: Calcein AM cytotoxicity assay, Hep3B. In kind it is cell-based. To be noted: Homo sapiens, Calcein AM, 72 h, read-out: IC50.
Text: as §1

For test [6], the system named is Hep3B cells. Put plainly: Cell Titer-Glo cytotoxicity assay, Hep3B. In kind it is cell-based. To be noted: Homo sapiens, Cell Titer-Glo, 72 h, read-out: IC50.
Text: as §1

Test [7] has as its system SF-268 cells. Description: Calcein AM cytotoxicity assay, SF-268. In kind it is cell-based. To be noted: Homo sapiens; SF-268, Calcein AM, 72 h; read-out: IC50.
Text: as §1

For test [8], the system named is SF-268 cells. Put plainly: Cell Titer-Glo cytotoxicity assay, SF-268. To be noted: Homo sapiens; SF-268, Cell Titer-Glo, 72 h; read-out: IC50. Type of test: cell-based.
Text: as §1

Test [9] has as its system SK-OV-3 cells. Put plainly: Calcein AM cytotoxicity assay, SK-OV-3. To be noted: Homo sapiens; SK-OV-3, Calcein AM, 72 h; read-out: IC50. In kind it is cell-based.
Text: as §1

For test [10], the system named is SK-OV-3 cells. Put plainly: Cell Titer-Glo cytotoxicity assay, SK-OV-3. To be noted: Homo sapiens; SK-OV-3, Cell Titer-Glo, 72 h; read-out: IC50. Type of test: cell-based.
Text: as §1

Test [11] deals with NCI/ADR RES cells. Description: Calcein AM cytotoxicity assay, NCI/ADR-RES. In kind it is cell-based. To be noted: Homo sapiens, Calcein AM, 72 h, read-out: IC50.
Text: as §1

Test [12] concerns NCI/ADR RES cells. Put plainly: Cell Titer-Glo cytotoxicity assay, NCI/ADR-RES. Type of test: cell-based, human. To be noted: Homo sapiens; NCI/ADR-RES, Cell Titer-Glo, 72 h; read-out: IC50.
Text: as §1

The subject of test [13] is NCI-H460 cells. Put plainly: Calcein AM cytotoxicity assay, NCI-H460. In kind it is cell-based. To be noted: Homo sapiens; NCI-H460, Calcein AM, 72 h; read-out: IC50.
Text: as §1

For test [14], the system named is NCI-H460 cells. Put plainly: Cell Titer-Glo cytotoxicity assay, NCI-H460. In kind it is cell-based, human. To be noted: Homo sapiens; NCI-H460, Cell Titer-Glo, 72 h; read-out: IC50.
Text: as §1

Test [15] relates to MCF7 cells. Description: Calcein AM cytotoxicity assay, MCF7. Type of test: cell-based. To be noted: Homo sapiens; MCF7, Calcein AM, 72 h; read-out: IC50.
Text: as §1

Test [16] concerns MCF7 cells. Put plainly: Cell Titer-Glo cytotoxicity assay, MCF7. In kind it is cell-based, human. To be noted: Homo sapiens; MCF7, Cell Titer-Glo, 72 h; read-out: IC50.
Text: as §1

Test [17] has as its system NmuMG mouse mammary normal epithelial cells. Put plainly: Calcein AM cytotoxicity assay, NmuMG. In kind it is cell-based. To be noted: Epithelial cell, NmuMG, Calcein AM, 72 h, read-out: IC50.
Text: as §1

Test [18] shares this test system. Put plainly: Cell Titer-Glo cytotoxicity assay, NmuMG. To be noted: Mus musculus, Epithelial cell; NmuMG, Cell Titer-Glo, 72 h; read-out: IC50. In kind it is cell-based.
Text: as §1

Test [19] relates to HT-29 cells. Description: MTT cytotoxicity assay, HT-29. Type of test: cell-based. To be noted: Homo sapiens; HT-29, MTT, 24 h; read-out: IC50. On the technique in general: Formazan colour is commonly taken as a measure of viable cells.
The subject of test [20] is human cancer cell lines. Description: Cytotoxicity across the panel of human cancer cell lines (average, high-throughput assays). In kind it is cell-based. To be noted: average across eight human cancer cell lines; MTT (HT-29) values excluded; read-out: Cancerous Average IC50 / Average IC50 in Cancer Cell Lines.
Text: as §1

Drawing on patent US20080312164A1 (priority 2006, published 2008), this text covers IC50 for four compounds.

The structures appear in SMILES notation.

As for `S=C=NCc1ccccc1Br` [Compound 25, 1-bromo-2-(isothiocyanatomethyl)benzene], the IC50 in test [1] is 3.99 µM; in test [2] it was 8.64 µM; in test [3], 19.6 µM; in test [4], 3.88 µM; in [5], 5.67 µM; in [6] it was 16.3 µM. The IC50 was 6 µM in [7]; 7.11 µM in test [8]; 6.32 µM in [9]; 5.01 µM in test [10]; above 20 µM in [11]; 20.1 µM in [12]. The IC50 in test [13] was 19.4 µM; in [14], 17.3 µM; in [15], 6.76 µM; in test [16], 2.73 µM; in test [17], 11.3 µM; in test [18], 4.6 µM. Moreover, the IC50 in test [19] stood at 26.9 µM; in test [20], 10.1 µM.

Regarding `S=C=NCc1ccc(Br)cc1` [Compound 26, 1-bromo-4-(isothiocyanatomethyl)benzene], the IC50 in test [1] is 7.67 µM; in [2] it was 10.1 µM; in [3], 5.16 µM; in [4], 9.8 µM; in [5], 7.16 µM; in test [6] it was 6.8 µM. In addition, the IC50 in [7] is 10.9 µM; in test [8], 6.96 µM; in test [9], 3.94 µM; in test [10] it was 7.17 µM; in test [11] it was above 20 µM; in test [12], 22.3 µM. Further, the IC50 is 16 µM in [13]; above 20 µM in test [14]; 7.08 µM in test [15]; 5.92 µM in test [16]; 18.3 µM in test [17]; 9.77 µM in test [18]. Besides, the IC50 in test [19] was found to be 47.4 µM; in [20], 10.7 µM.

For `COc1cc(OC)c(CN=C=S)c(OC)c1` [Compound 28, 2-(isothiocyanatomethyl)-1,3,5-trimethoxybenzene], the IC50 was 2.54 µM in test [1]; 4.8 µM in [2]; 9.23 µM in [3]; 4.55 µM in test [4]; 1.87 µM in [5]; 3.21 µM in test [6]. Besides, the IC50 in [7] is 4.61 µM; in test [8], 3.05 µM; in [9], 3.93 µM; in [10], 4.75 µM; in test [11], 12 µM; in [12] it was 15.2 µM. The IC50 in test [13] was 11.9 µM; in test [14], 10.8 µM; in test [15], 5.75 µM; in test [16], 3.15 µM; in test [17], 2.94 µM; in test [18], 2.09 µM. For the same compound, the values for the IC50 in test [19] and in test [20] were 17 µM and 6.53 µM, respectively.

Take `S=C=NCc1ccc2c(c1)OCO2` [Compound 29, 5-(isothiocyanatomethyl)benzo[d][1,3]dioxole]: the IC50 was 2.18 µM in test [1]; 6.24 µM in [2]; above 20 µM in test [3]; 4.77 µM in test [4]; 3.9 µM in test [5]; 4.3 µM in [6]. The IC50 is 2.55 µM in test [7]; 3.92 µM in [8]; 2.79 µM in [9]; 4.44 µM in [10]; 6.39 µM in test [11]; 9.77 µM in test [12]. The IC50 was 9.59 µM in test [13]; 11.5 µM in test [14]; 3.15 µM in test [15]; 2.51 µM in test [16]; below 12.5 µM in test [17]; 17 µM in test [18]. Further, the IC50 in test [19] is 30.3 µM; in [20], 5.77 µM.
